Assay results as given in patent US7932270B2 (Cytokinetics, Inc., priority 2006, dated 2011).

What follows are molecules tested against T1, chicken gizzard smooth muscle myosin subfragment-1 chemically crosslinked to cardiac or skeletal actin (Gallus gallus, UniProt P10587) (assay: Smooth muscle myosin ATPase dose response assay (pyruvate kinase/horseradish peroxidase/pyruvate oxidase-coupled, amplex red fluorescence)). Conditions: read-out: IC50 Arithmetic Mean.
T1 construct: chicken gizzard smooth muscle myosin subfragment-1; from tissue; host or cells: chicken gizzard
T1 sequence (P02607 2-151): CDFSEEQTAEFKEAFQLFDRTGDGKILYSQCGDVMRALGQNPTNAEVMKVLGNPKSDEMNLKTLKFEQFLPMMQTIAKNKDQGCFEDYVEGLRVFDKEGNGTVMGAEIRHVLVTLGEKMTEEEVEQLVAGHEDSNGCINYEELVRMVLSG
T1 sequence (P10587 84-789): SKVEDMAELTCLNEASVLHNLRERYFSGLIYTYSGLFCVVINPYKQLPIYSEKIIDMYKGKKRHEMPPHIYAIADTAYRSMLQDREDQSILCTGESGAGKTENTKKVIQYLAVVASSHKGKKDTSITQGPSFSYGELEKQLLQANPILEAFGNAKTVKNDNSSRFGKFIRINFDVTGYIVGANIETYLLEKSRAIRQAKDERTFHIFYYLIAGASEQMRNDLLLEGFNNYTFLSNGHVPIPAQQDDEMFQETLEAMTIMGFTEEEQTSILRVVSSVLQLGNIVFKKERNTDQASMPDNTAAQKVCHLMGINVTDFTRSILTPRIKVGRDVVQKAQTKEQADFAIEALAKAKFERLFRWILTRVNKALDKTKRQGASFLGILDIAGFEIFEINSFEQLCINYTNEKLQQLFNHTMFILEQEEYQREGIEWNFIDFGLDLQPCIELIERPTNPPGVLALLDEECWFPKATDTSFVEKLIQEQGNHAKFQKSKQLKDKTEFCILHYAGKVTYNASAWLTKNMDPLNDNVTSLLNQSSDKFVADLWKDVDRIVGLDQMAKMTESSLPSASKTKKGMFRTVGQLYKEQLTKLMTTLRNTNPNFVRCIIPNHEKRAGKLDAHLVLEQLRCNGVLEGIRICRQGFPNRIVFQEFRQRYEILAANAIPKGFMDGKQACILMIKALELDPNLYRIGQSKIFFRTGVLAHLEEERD
Assay type: biochemical
Outline: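 Inhibition is measured in a peroxidase/pyruvate oxidase-linked format at pH 7.00 and 22° C, 0.15 mM ATP final. Myosin input is titrated to a target turnover since active fraction differs between preparations.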
For `Cn1cc(-c2ccc(C(=O)NC[C@H]3CCCN3C(=O)CCNC(=O)OC(C)(C)C)c(NCCc3cccc(F)c3)n2)cn1` [N-[((2R)-1-{3-[(tert-butoxy)carbonylamino]propanoyl}pyrrolidin-2-yl)methyl](2-{[2-(3-fluorophenyl)ethyl]amino}-6-(1-methylpyrazol-4-yl)(3-pyridyl))carboxamide], the IC50 was 5.03 µM.
With `Cn1cc(-c2nc(NCCc3cccc(F)c3)c(C(=O)NC[C@H]3CCCN3C(=O)CCNC(=O)OC(C)(C)C)cc2F)cn1` [N-[((2R)-1-{3-[(tert-butoxy)carbonylamino]propanoyl}pyrrolidin-2-yl)methyl](5-fluoro-2-{[2-(3-fluorophenyl)ethyl]amino}-6-(1-methylpyrazol-4-yl)(3-pyridyl))carboxamide] the IC50 was 0.505 µM.
In the case of `CC(C)(C)OC(=O)NCCC(=O)N1CCC[C@@H]1CNC(=O)c1cc(F)c(-c2cn[nH]c2)nc1NCCc1cccc(F)c1` [N-[((2R)-1-{3-[(tert-butoxy)carbonylamino]propanoyl}pyrrolidin-2-yl)methyl](5-fluoro-2-{[2-(3-fluorophenyl)ethyl]amino}-6-pyrazol-4-yl(3-pyridyl))carboxamide], the IC50 is reported as 0.98 µM.
Molecule `CC(C)(C)OC(=O)NCCC(=O)N1CCC[C@@H]1CNC(=O)c1cc(F)c(-c2ccccc2C#N)nc1NCCc1cccc(F)c1` [N-[((2R)-1-{3-[(tert-butoxy)carbonylamino]propanoyl}pyrrolidin-2-yl)methyl](6-(2-cyanophenyl)-5-fluoro-2-{[2-(3-fluorophenyl)ethyl]amino}(3-pyridyl))carboxamide] has an IC50 of 2.77 µM.
`Cc1cc(C(=O)NC[C@H]2CCC(=O)N2CCCNC(=O)OC(C)(C)C)c(NCCc2cccc(F)c2)nc1-c1cnn(C)c1` [N-[((2R)-1-{3-[(tert-butoxy)carbonylamino]propyl}-5-oxopyrrolidin-2-yl)methyl](2-{[2-(3-fluorophenyl)ethyl]amino}-5-methyl-6-(1-methylpyrazol-4-yl)(3-pyridyl))carboxamide] gave an IC50 of 1.46 µM.
With `Cn1cc(-c2ccc(C(=O)NC[C@H]3CCC(=O)N3CCCNC(=O)OC(C)(C)C)c(NCCc3cccc(F)c3)n2)cn1` [N-[((2R)-1-{3-[(tert-butoxy)carbonylamino]propyl}-5-oxopyrrolidin-2-yl)methyl](2-{[2-(3-fluorophenyl)ethyl]amino}-6-(1-methylpyrazol-4-yl)(3-pyridyl))carboxamide] the IC50 was 1.34 µM.
Work on `Cn1cc(-c2nc(NCCc3cccc(F)c3)c(C(=O)NC[C@H]3CCC(=O)N3CCCNC(=O)OC(C)(C)C)cc2Cl)cn1` [N-[((2R)-1-{3-[(tert-butoxy)carbonylamino]propyl}-5-oxopyrrolidin-2-yl)methyl](5-chloro-2-{[2-(3-fluorophenyl)ethyl]amino}-6-(1-methylpyrazol-4-yl)(3-pyridyl))carboxamide] yielded an IC50 of 0.443 µM.
Molecule `CC(C)(C)OC(=O)NCCCN1C(=O)CC[C@@H]1CNC(=O)c1cc(C#N)c(-c2cn[nH]c2)nc1NCCc1cccc(F)c1` [N-[((2R)-1-{3-[(tert-butoxy)carbonylamino]propyl}-5-oxopyrrolidin-2-yl)methyl](5-cyano-2-{[2-(3-fluorophenyl)ethyl]amino}-6-pyrazol-4-yl(3-pyridyl))carboxamide] has an IC50 of 3.51 µM.
Work on `Cn1cc(-c2nc(NCCc3cccc(F)c3)c(C(=O)NC[C@H]3CCC(=O)N3CCCNC(=O)OC(C)(C)C)cc2F)cn1` [N-[((2R)-1-{3-[(tert-butoxy)carbonylamino]propyl}-5-oxopyrrolidin-2-yl)methyl](5-fluoro-2-{[2-(3-fluorophenyl)ethyl]amino}-6-(1-methylpyrazol-4-yl)(3-pyridyl))carboxamide] yielded an IC50 of 0.322 µM.
`CC(C)(C)OC(=O)NCCCN1C(=O)CC[C@@H]1CNC(=O)c1cc(F)c(-c2cn[nH]c2)nc1NCCc1cccc(F)c1` [N-[((2R)-1-{3-[(tert-butoxy)carbonylamino]propyl}-5-oxopyrrolidin-2-yl)methyl](5-fluoro-2-{[2-(3-fluorophenyl)ethyl]amino}-6-pyrazol-4-yl(3-pyridyl))carboxamide] was tested, and the IC50 was 0.354 µM.
For `CC(C)(C)OC(=O)NCCCN1C(=O)CC[C@@H]1CNC(=O)c1ccc(-c2ccccc2C#N)nc1NCCc1cccc(F)c1` [N-[((2R)-1-{3-[(tert-butoxy)carbonylamino]propyl}-5-oxopyrrolidin-2-yl)methyl](6-(2-cyanophenyl)-2-{[2-(3-fluorophenyl)ethyl]amino}(3-pyridyl))carboxamide], the IC50 was 0.518 µM.
Molecule `CC(C)(C)OC(=O)NCCCN1C(=O)CC[C@@H]1CNC(=O)c1cc(F)c(-c2ccccc2C#N)nc1NCCc1cccc(F)c1` [N-[((2R)-1-{3-[(tert-butoxy)carbonylamino]propyl}-5-oxopyrrolidin-2-yl)methyl](6-(2-cyanophenyl)-5-fluoro-2-{[2-(3-fluorophenyl)ethyl]amino}(3-pyridyl))carboxamide] has an IC50 of 0.845 µM.
In the case of `CC(C)(C)OC(=O)NCCCN1C(=O)CCC[C@@H]1CNC(=O)c1ccc(-c2ccccc2C#N)nc1NCCc1cccc(F)c1` [N-[((2R)-1-{3-[(tert-butoxy)carbonylamino]propyl}-6-oxo(2-piperidyl))methyl](6-(2-cyanophenyl)-2-{[2-(3-fluorophenyl)ethyl]amino}(3-pyridyl))carboxamide], the IC50 is reported as 0.392 µM.
`CC(C)(C)OC(=O)NCCCN1CCC[C@@H]1CNC(=O)c1ccc(-c2ccccc2C#N)nc1NCCc1cccc(F)c1` [N-[((2R)-1-{3-[(tert-butoxy)carbonylamino]propyl}pyrrolidin-2-yl)methyl](6-(2-cyanophenyl)-2-{[2-(3-fluorophenyl)ethyl]amino}(3-pyridyl))carboxamide] showed an IC50 of 1.34 µM.
Work on `Cn1cc(-c2nc(NCCc3cccc(F)c3)c(C(=O)NC[C@H]3CCN3C(=O)CCCNC(=O)OC(C)(C)C)cc2F)cn1` [N-[((2R)-1-{4-[(tert-butoxy)carbonylamino]butanoyl}azetidin-2-yl)methyl](5-fluoro-2-{[2-(3-fluorophenyl)ethyl]amino}-6-(1-methylpyrazol-4-yl)(3-pyridyl))carboxamide] yielded an IC50 of 0.122 µM.
For `Cc1cc(C(=O)NC[C@H]2CCCN2C(=O)CCCNC(=O)OC(C)(C)C)c(NCCc2cccc(F)c2)nc1-c1cnn(C)c1` [N-[((2R)-1-{4-[(tert-butoxy)carbonylamino]butanoyl}pyrrolidin-2-yl)methyl](2-{[2-(3-fluorophenyl)ethyl]amino}-5-methyl-6-(1-methylpyrazol-4-yl)(3-pyridyl))carboxamide], the IC50 was 2.26 µM.
In the case of `Cn1cc(-c2ccc(C(=O)NC[C@H]3CCCN3C(=O)CCCNC(=O)OC(C)(C)C)c(NCCc3cccc(F)c3)n2)cn1` [N-[((2R)-1-{4-[(tert-butoxy)carbonylamino]butanoyl}pyrrolidin-2-yl)methyl](2-{[2-(3-fluorophenyl)ethyl]amino}-6-(1-methylpyrazol-4-yl)(3-pyridyl))carboxamide], the IC50 is reported as 3.65 µM.
`Cn1cc(-c2nc(NCCc3cccc(F)c3)c(C(=O)NC[C@H]3CCCN3C(=O)CCCNC(=O)OC(C)(C)C)cc2Cl)cn1` [N-[((2R)-1-{4-[(tert-butoxy)carbonylamino]butanoyl}pyrrolidin-2-yl)methyl](5-chloro-2-{[2-(3-fluorophenyl)ethyl]amino}-6-(1-methylpyrazol-4-yl)(3-pyridyl))carboxamide] showed an IC50 of 0.683 µM.
Molecule `Cn1cc(-c2nc(NCCc3cccc(F)c3)c(C(=O)NC[C@H]3CCCN3C(=O)CCCNC(=O)OC(C)(C)C)cc2C#N)cn1` [N-[((2R)-1-{4-[(tert-butoxy)carbonylamino]butanoyl}pyrrolidin-2-yl)methyl](5-cyano-2-{[2-(3-fluorophenyl)ethyl]amino}-6-(1-methylpyrazol-4-yl)(3-pyridyl))carboxamide] has an IC50 of 1.61 µM.
With `CC(C)(C)OC(=O)NCCCC(=O)N1CCC[C@@H]1CNC(=O)c1cc(C#N)c(-c2cn[nH]c2)nc1NCCc1cccc(F)c1` [N-[((2R)-1-{4-[(tert-butoxy)carbonylamino]butanoyl}pyrrolidin-2-yl)methyl](5-cyano-2-{[2-(3-fluorophenyl)ethyl]amino}-6-pyrazol-4-yl(3-pyridyl))carboxamide] the IC50 was 3.42 µM.
Work on `Cn1cc(-c2nc(NCCc3cccc(F)c3)c(C(=O)NC[C@H]3CCCN3C(=O)CCCNC(=O)OC(C)(C)C)cc2F)cn1` [N-[((2R)-1-{4-[(tert-butoxy)carbonylamino]butanoyl}pyrrolidin-2-yl)methyl](5-fluoro-2-{[2-(3-fluorophenyl)ethyl]amino}-6-(1-methylpyrazol-4-yl)(3-pyridyl))carboxamide] yielded an IC50 of 0.483 µM.
With `CC(C)(C)OC(=O)NCCCC(=O)N1CCC[C@@H]1CNC(=O)c1cc(F)c(-c2cn[nH]c2)nc1NCCc1cccc(F)c1` [N-[((2R)-1-{4-[(tert-butoxy)carbonylamino]butanoyl}pyrrolidin-2-yl)methyl](5-fluoro-2-{[2-(3-fluorophenyl)ethyl]amino}-6-pyrazol-4-yl(3-pyridyl))carboxamide] the IC50 was 0.75 µM.
`CC(C)(C)OC(=O)NCCCC(=O)N1CCC[C@@H]1CNC(=O)c1ccc(-c2ccccc2C#N)nc1NCCc1cccc(F)c1` [N-[((2R)-1-{4-[(tert-butoxy)carbonylamino]butanoyl}pyrrolidin-2-yl)methyl](6-(2-cyanophenyl)-2-{[2-(3-fluorophenyl)ethyl]amino}(3-pyridyl))carboxamide] showed an IC50 of 0.432 µM.
With `CC(C)(C)OC(=O)NCCCC(=O)N1CCC[C@@H]1CNC(=O)c1cc(F)c(-c2ccccc2C#N)nc1NCCc1cccc(F)c1` [N-[((2R)-1-{4-[(tert-butoxy)carbonylamino]butanoyl}pyrrolidin-2-yl)methyl](6-(2-cyanophenyl)-5-fluoro-2-{[2-(3-fluorophenyl)ethyl]amino}(3-pyridyl))carboxamide] the IC50 was 1.06 µM.
In the case of `CC(C)(C)OC(=O)NCCCCC(=O)N1CCC[C@@H]1CNC(=O)c1ccc(-c2ccccc2C#N)nc1NCCc1cccc(F)c1` [N-[((2R)-1-{5-[(tert-butoxy)carbonylamino]pentanoyl}pyrrolidin-2-yl)methyl](6-(2-cyanophenyl)-2-{[2-(3-fluorophenyl)ethyl]amino}(3-pyridyl))carboxamide], the IC50 is reported as 2.94 µM.
